These are literature values, as cited in PMC11187573, “Identification of SARS-CoV-2 Mpro inhibitors through deep reinforcement learning for de novo drug design and computational chemistry approaches” (RSC Medicinal Chemistry, 2024).

A word on the IC50: it is the point on the concentration scale where inhibition reaches its midpoint.

In one data set the test system is Mpro. The settings on record: ML dataset, Origin COVID_Moonshot; ref COVID Moonshot; cited from earlier work.
On to `CC(C)(C)c1ccc(N(C(=O)c2cnco2)C(C(=O)NCCc2cccc(F)c2)c2cccnc2)cc1` (stereo not drawn) [ALP-POS-305f6ec3-49], for which the IC50 is 4.78 µM.

As to `CC(C)(C)c1ccc(N(C(=O)c2c[nH]c(=O)[nH]2)C(C(=O)NCCc2cccc(F)c2)c2cccnc2)cc1` (stereo not drawn) [ALP-POS-305f6ec3-52], the concentration for half-maximal inhibition (IC50) is 15.9 µM. In the case of `Cn1cnc(C(=O)N(c2ccc(C(C)(C)C)cc2)C(C(=O)NCCc2cccc(F)c2)c2cccnc2)n1` (stereo not drawn) [ALP-POS-305f6ec3-55], the IC50 is 74.2 µM. For `CC(C)(C)c1ccc(N(C(=O)c2cc(=O)[nH][nH]2)C(C(=O)NCCc2cccc(F)c2)c2cccnc2)cc1` (stereo not drawn) [ALP-POS-305f6ec3-59], the concentration for half-maximal inhibition (IC50) was 39.7 µM. `O=C(Nc1cncc2ccccc12)C1CCOc2c1ccc(Cl)c2Cl` (stereo not drawn) [ALP-POS-869ac754-2]: the half-maximal inhibitory concentration (IC50) is 3.31 µM.

In the case of `O=C(Nn1nnc2ccccc21)C(Cc1cccc(Cl)c1)c1ccc(N2CCCCC2=O)cc1` (stereo not drawn) [ALP-POS-a3de0cb1-13], the concentration for half-maximal inhibition (IC50) was 66.4 µM. For `O=C1CCCCN1c1ccc(N(Cc2ccccc2)C(=O)Cc2n[nH]c3ccccc23)cc1` [ALP-POS-a3de0cb1-16], the IC50 is 39.4 µM. On to `O=C(NCCc1cccc(F)c1)C(c1cccnc1)N(C(=O)c1ccco1)c1ccc(C2CCCC2)cc1` (stereo not drawn) [ALP-POS-b0bc6a46-5], for which the half-maximal inhibitory concentration (IC50) was 0.282 µM. On to `O=C(NCCc1cccc(F)c1)C(c1cccnc1)N(Cc1ccccc1C1CCC1)C(=O)c1ccco1` (stereo not drawn) [ALP-POS-b0bc6a46-10], for which the IC50 is 1.93 µM. On to `CC(C)(C)c1cnc(N(C(=O)c2ccco2)C(C(=O)NCCc2cccc(F)c2)c2cccnc2)s1` (stereo not drawn) [ALP-POS-b0bc6a46-12], for which the half-maximal inhibitory concentration (IC50) is 3.94 µM. Take `CSc1ccc(CN(C(=O)c2ccco2)C(C(=O)NCCc2cccc(F)c2)c2cccnc2)cc1C#N` (stereo not drawn) [ALP-POS-b0bc6a46-20]: the half-inhibitory concentration (IC50) was 54.9 µM.

Consider `COc1ccc(N(C(=O)c2ccco2)C(C(=O)NCCc2cccc(F)c2)c2cccnc2)cc1` (stereo not drawn) [ALP-POS-b0bc6a46-22], for which the half-maximal inhibitory concentration (IC50) is 30.5 µM. On to `N#Cc1ccc(N(C(=O)c2ccco2)C(C(=O)NCCc2cccc(F)c2)c2cccnc2)cc1` (stereo not drawn) [ALP-POS-b0bc6a46-24], for which the IC50 was 10.4 µM. Take `O=C(NCCc1cccc(F)c1)C(c1cccnc1)N(C(=O)c1ccco1)C1CCN(c2ccccc2)CC1` (stereo not drawn) [ALP-POS-b0bc6a46-28]: the IC50 is 79.6 µM. Turning to `COc1ccc2nnn(CC(=O)N(Cc3ccccn3)c3ccc(C4CCNCC4)cc3)c2c1` [ALP-POS-c0c213c9-1], the IC50 was 35.5 µM. As for `CC(C)(C(N)=O)c1ccc(N(Cc2ccsc2)C(=O)Cn2nnc3ccccc32)cc1` [ALP-POS-c0c213c9-6], the IC50 was 3.17 µM. In the case of `Cc1ccc(N(Cc2cscn2)C(=O)Cc2cncc3ccccc23)cc1` [ALP-POS-c3a96089-1], the IC50 was 10.9 µM. With `CNc1ccc(N(Cc2ccsc2)C(=O)Cn2nnc3ccccc32)cc1` [ALP-POS-c59291d4-4], the IC50 was 11.5 µM.

Take `O=C(Nc1cncc2ccccc12)C1CCOc2c(O)cc(Cl)cc21` (stereo not drawn) [ALP-POS-ce760d3f-1]: the IC50 was 0.579 µM.

For the molecule `CN1C(=O)CCc2cc(N(C(=O)c3cocn3)C(C(=O)NCCc3cccc(F)c3)c3cccnc3)ccc21` (stereo not drawn) [ALP-POS-ced8ea4d-1], the half-maximal inhibitory concentration (IC50) is 63.5 µM. As for `CC(C)S(=O)(=O)c1ccc(N(C(=O)c2cocn2)C(C(=O)NCCc2cccc(F)c2)c2cccnc2)cc1` (stereo not drawn) [ALP-POS-ced8ea4d-5], the IC50 was 66.1 µM. With `Cn1ncc2cc(N(C(=O)c3cocn3)C(C(=O)NCCc3cccc(F)c3)c3cccnc3)ccc21` (stereo not drawn) [ALP-POS-ced8ea4d-8], the half-maximal inhibitory concentration (IC50) was 48 µM. As to `CS(=O)(=O)c1ccc(N(C(=O)c2cocn2)C(C(=O)NCCc2cccc(F)c2)c2cccnc2)cc1` (stereo not drawn) [ALP-POS-ced8ea4d-9], the concentration for half-maximal inhibition (IC50) was 75.9 µM. In the case of `CS(=O)(=O)Cc1ccc(N(C(=O)c2cocn2)C(C(=O)NCCc2cccc(F)c2)c2cccnc2)cc1` (stereo not drawn) [ALP-POS-ced8ea4d-11], the IC50 is 27.7 µM. As to `CC(C)Oc1ccc(N(C(=O)c2cocn2)C(C(=O)NCCc2cccc(F)c2)c2cccnc2)cc1` (stereo not drawn) [ALP-POS-ced8ea4d-12], the half-inhibitory concentration (IC50) is 0.609 µM. For the molecule `O=C(NCCc1cccc(F)c1)C(c1cccnc1)N(C(=O)c1cocn1)c1ccc(Cn2cccn2)cc1` (stereo not drawn) [ALP-POS-ced8ea4d-16], the IC50 is 8.34 µM. For the molecule `COc1ccc(N(C(=O)c2cocn2)C(C(=O)NCCc2cccc(F)c2)c2cccnc2)cc1` (stereo not drawn) [ALP-POS-ced8ea4d-19], the IC50 is 22.2 µM.

Turning to `Cn1ccc2cc(N(C(=O)c3cocn3)C(C(=O)NCCc3cccc(F)c3)c3cccnc3)ccc21` (stereo not drawn) [ALP-POS-ced8ea4d-20], the IC50 was 23.8 µM. In the case of `O=C(NCCc1cccc(F)c1)C(c1cccnc1)N(C(=O)c1cocn1)c1ccc2ncsc2c1` (stereo not drawn) [ALP-POS-ced8ea4d-24], the half-maximal inhibitory concentration (IC50) was 60.5 µM. With `Cc1ccc(N(C(=O)c2cocn2)C(C(=O)NCCc2cccc(F)c2)c2cccnc2)cc1` (stereo not drawn) [ALP-POS-ced8ea4d-27], the concentration for half-maximal inhibition (IC50) is 50.2 µM.

`O=C(NCCc1cccc(F)c1)C(c1cccnc1)N(C(=O)c1cocn1)c1ccccc1` (stereo not drawn) [ALP-POS-ced8ea4d-28]: the IC50 is 89.2 µM. Consider `O=C(NCCc1cccc(F)c1)C(c1cccnc1)N(C(=O)c1cocn1)c1ccc(OC2CCOC2)cc1` (stereo not drawn) [ALP-POS-ced8ea4d-32], for which the IC50 is 6.32 µM. For the molecule `O=C(NCCc1cccc(F)c1)C(c1cccnc1)N(C(=O)c1cocn1)c1cn(Cc2ccccc2)cn1` (stereo not drawn) [ALP-POS-ced8ea4d-35], the IC50 was 27.3 µM. For the molecule `O=C(NCCc1cccc(F)c1)C(c1cccnc1)N(C(=O)c1cocn1)c1ccc2scnc2c1` (stereo not drawn) [ALP-POS-ced8ea4d-36], the 50% inhibitory concentration (IC50) was 84 µM. Turning to `O=C(NCCc1cccc(F)c1)C(c1cccnc1)N(C(=O)c1cocn1)c1ccc(C(F)(F)F)nc1` (stereo not drawn) [ALP-POS-ced8ea4d-37], the half-maximal inhibitory concentration (IC50) was 36.4 µM. As for `O=C(NCCc1cccc(F)c1)C(c1cccnc1)N(C(=O)c1cocn1)c1cnc(C2CCC2)nc1` (stereo not drawn) [ALP-POS-ced8ea4d-63], the half-maximal inhibitory concentration (IC50) is 69.1 µM. Regarding `CCOc1ccc(N(C(=O)c2cocn2)C(C(=O)NCCc2cccc(F)c2)c2cccnc2)cc1` (stereo not drawn) [ALP-POS-ced8ea4d-67], the half-maximal inhibitory concentration (IC50) is 15.5 µM.

In the case of `Cc1ccncc1C(C(=O)NCCc1cccc(F)c1)N(C(=O)c1cocn1)c1ccc(C(C)(C)C)cc1` (stereo not drawn) [ALP-POS-d0876c20-1], the half-inhibitory concentration (IC50) was 0.653 µM. `CC(C)(C)c1ccc(N(C(=O)c2cocn2)C(C(=O)NCCc2cccc(F)c2)c2ccnnc2)cc1` (stereo not drawn) [ALP-POS-d0876c20-5]: the half-maximal inhibitory concentration (IC50) was 2.05 µM. Consider `COc1nccnc1C(C(=O)NCCc1cccc(F)c1)N(C(=O)c1cocn1)c1ccc(C(C)(C)C)cc1` (stereo not drawn) [ALP-POS-d0876c20-15], for which the half-inhibitory concentration (IC50) is 94.9 µM. With `CC(C)(C)c1ccc(N(C(=O)c2cocn2)C(C(=O)NCCc2cccc(F)c2)c2cncnc2)cc1` (stereo not drawn) [ALP-POS-d0876c20-17], the half-inhibitory concentration (IC50) was 2.92 µM. Take `COc1ncncc1C(C(=O)NCCc1cccc(F)c1)N(C(=O)c1cocn1)c1ccc(C(C)(C)C)cc1` (stereo not drawn) [ALP-POS-d0876c20-19]: the half-inhibitory concentration (IC50) was 8.43 µM. For the molecule `CC(C)(C)c1ccc(N(C(=O)c2cocn2)C(C(=O)NCCc2cccc(F)c2)c2cnccn2)cc1` (stereo not drawn) [ALP-POS-d0876c20-21], the half-maximal inhibitory concentration (IC50) was 1.21 µM. On to `CN(C)c1ccc(N(Cc2ccsc2)C(=O)Cn2nnc3ccccc32)cc1` [ALP-POS-d2866bdf-1], for which the IC50 is 3.58 µM. For `O=C(NCCc1cccc(F)c1)C(c1cccnc1)N(C(=O)c1cnc[nH]1)c1ccc(OC2CCOC2)cc1` (stereo not drawn) [ALP-POS-e980f4ea-32], the IC50 is 25.8 µM.

Consider `O=C(COc1cccc(Cl)c1)Nc1cncc2ccccc12` [ALP-POS-f13221e1-2], for which the IC50 was 8.59 µM.

Regarding `O=C(CC1(C(=O)Nc2cncc3ccccc23)CCOc2ccc(Cl)cc21)N1CCN(CC(F)(F)CO)CC1` (stereo not drawn) [ALP-UNI-8e43a71e-10], the half-maximal inhibitory concentration (IC50) is 7.28 µM.

Turning to `O=C(Nc1cncc2ccccc12)C1CCNc2cc(Cl)c(Cl)cc21` (stereo not drawn) [ALP-UNI-3735e77e-4], the IC50 was 0.154 µM. As to `O=C(Nc1cncc2ccccc12)C1CCN(Cc2cnc[nH]2)c2ccc(Cl)cc21` (stereo not drawn) [ALP-UNI-b33a865d-1], the 50% inhibitory concentration (IC50) was 1.12 µM. For `Cn1nncc1CC(=O)NC(c1ccccc1)c1nc2ccccc2n1C` (stereo not drawn) [BAR-COM-4e090d3a-6], the half-inhibitory concentration (IC50) is 35.7 µM. As to `O=C(c1cc(=O)[nH]c2ccccc12)N1CCN(Cc2ccccc2)CC1` [BEN-DND-7e92b6ca-10], the half-maximal inhibitory concentration (IC50) was 13.8 µM.

Consider `COc1cccc(N2CCN(C(=O)c3cc(=O)[nH]c4ccccc34)CC2)c1` [BEN-DND-7e92b6ca-12], for which the half-inhibitory concentration (IC50) is 13.6 µM. Turning to `COc1ccccc1N1CCN(C(=O)c2cc(=O)[nH]c3ccccc23)CC1` [BEN-DND-7e92b6ca-13], the concentration for half-maximal inhibition (IC50) is 32.8 µM.

As to `O=C(c1cc(=O)[nH]c2ccccc12)N1CCN(c2ccc(F)cc2)CC1` [BEN-DND-7e92b6ca-14], the concentration for half-maximal inhibition (IC50) was 34.6 µM. With `O=C(Nc1cncc2ccccc12)N1CCOc2ccc(Cl)cc21` [BEN-DND-f2e727cd-1], the half-maximal inhibitory concentration (IC50) was 11.4 µM. `O=C(NCCc1cccc(F)c1)C(c1cccnc1)N(C(=O)c1c[nH]cn1)c1ccc(OC(F)F)cc1` (stereo not drawn) [BRU-THA-92256091-16]: the IC50 is 22.1 µM. Take `COc1ccc(N(C(=O)c2c[nH]cn2)C(C(=O)NCCc2cccc(F)c2)c2cccnc2)cc1` (stereo not drawn) [BRU-THA-92256091-19]: the 50% inhibitory concentration (IC50) was 93.7 µM. `CS(=O)(=O)Cc1ccc(N(C(=O)c2c[nH]cn2)C(C(=O)NCCc2cccc(F)c2)c2cccnc2)cc1` (stereo not drawn) [BRU-THA-92256091-20]: the half-maximal inhibitory concentration (IC50) was 41.1 µM. Consider `COCc1ccc(N(C(=O)c2c[nH]cn2)C(C(=O)NCCc2cccc(F)c2)c2cccnc2)cc1` (stereo not drawn) [BRU-THA-92256091-23], for which the concentration for half-maximal inhibition (IC50) is 62.9 µM. For `O=C(NCCc1cccc(F)c1)C(c1cccnc1)N(C(=O)c1c[nH]cn1)c1ccc(C2COC2)cc1` (stereo not drawn) [BRU-THA-92256091-80], the half-maximal inhibitory concentration (IC50) was 22.7 µM. On to `O=C(NCCc1cccc(F)c1)C(c1cccnc1)N(C(=O)c1c[nH]cn1)c1ccc(Cn2cccn2)cc1` (stereo not drawn) [BRU-THA-92256091-86], for which the IC50 was 35.5 µM.

The data set is the same for the next values; noted with them: ML dataset, Origin ChEMBL; ref ChEMBL; cited from earlier work.
Turning to `C[C@H]1COc2c(N3CCN(C)CC3)c(F)cc3c(=O)c(C(=O)O)cn1c23` [CHEMBL33], the IC50 is 7.6 µM.

In the case of `O=C(O)c1ccc(S(=O)(=O)c2cc(Br)c(O)c(Br)c2)cc1` [CHEMBL212240], the IC50 is 16 µM.

On to `Nc1ncc(S(=O)(=O)c2ccc(Cl)cc2)c(N)n1` [CHEMBL213581], for which the IC50 is 6 µM. On to `O=S(=O)(Cc1[nH]c(-c2ccc(Cl)s2)c[s+]1)c1cccs1` [CHEMBL215733], for which the IC50 is 18 µM.

`O=C(Oc1cncc(Br)c1)c1ccco1` [CHEMBL222234, O=C(c1ccco1)Oc1cc(Br)cnc1, reference compound]: the IC50 is 0.05 µM.
